Source: patent US20080076729A1, “Interferon-beta gene therapy using an improved, regulated expression system” (Schering Aktiengesellachaft, priority 2005, published 2008)

System: Mx1 RNA in murine L929 cells
Assay: Mx1 RNA induction in vitro in L929 cells (TaqMan RT-PCR)
Type: cell-based
Description: FIG. 5 illustrates Mx1 RNA induction in vitro (in L929 cells) by mIFN-β. L929 cells were seeded at 5×10^5 cells in 6 well plates and stimulated with increasing amounts of purified recombinant mIFN-β protein. Four hours after treatment the cells were harvested, RNA isolated, and Mx1 RNA quantitated by TaqMan analysis. Mx1 RNA expression is plotted as the fold increase relative to GAPDH RNA.
• A. Development of mIFN-β Biomarkers: For higher sensitivity in detection of murine IFN-β (mIFN-β) activity in vivo, biomarkers for mIFN-β activity were identified in mice after injection of mIFN-β protein or mIFN-β encoded gene therapy vectors. […] In the present study, the expression of the MxA mouse homologue, Mx1, (see e.g., Hug, H et al. Mol Cell Biol 8: 3065-79; Pavlovic, J (1993) Ciba Found Symp 176: 233-43) isolated from murine peripheral blood monocytes (PBMC's) was used to detect the presence of biologically active mIFN-β. • A quantitative PCR/RT-PCR assay was developed to quantitate the levels of Mx1 mRNA in murine PBMC's. […] The samples were analyzed with an Mx1-specific probe/primer combination. Mx1 expression was normalized to GAPDH expression measured in parallel using a standard assay from ABI. • The assay was validated in vitro by examining Mx1 RNA induction in murine L929 cells treated with purified recombinant mIFN-β protein (FIG. 5). […]

## mIFN-β: purified recombinant murine interferon-beta protein
4 hours treatment
  EC50 of Mx1 RNA induction: approximately 50 pg/ml
Relative to GAPDH
  increase in the level of Mx1 RNA: 100 fold
